According to PMC9496400, “Structural Comparison of hMDH2 Complexed with Natural Substrates and Cofactors: The Importance of Phosphate Binding for Active Conformation and Catalysis” (Biomolecules, 2022):

Assays:
Format in all cases: binding
[1] = molecular target: T1, human mitochondrial malate dehydrogenase (hMDH2) (Homo sapiens, UniProt P40926); test: ITC direct titration; crystal structure with oxaloacetate
T1 construct: gene MDH2
T1 sequence (P40926 19-338): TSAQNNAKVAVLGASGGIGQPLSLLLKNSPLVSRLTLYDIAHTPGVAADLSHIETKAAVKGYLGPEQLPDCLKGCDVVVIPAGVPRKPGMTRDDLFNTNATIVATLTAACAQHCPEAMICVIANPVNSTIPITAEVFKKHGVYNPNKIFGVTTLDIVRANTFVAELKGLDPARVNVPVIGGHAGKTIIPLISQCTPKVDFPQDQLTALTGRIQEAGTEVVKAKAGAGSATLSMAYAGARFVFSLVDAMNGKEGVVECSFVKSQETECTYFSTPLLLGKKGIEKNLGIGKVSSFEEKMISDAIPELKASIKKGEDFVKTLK

[2] = molecular target: T1, human mitochondrial malate dehydrogenase (hMDH2); test: crystal structure of the ternary complex with NADH ([…] Å)
[3] = molecular target: T1, human mitochondrial malate dehydrogenase (hMDH2); test: crystal structure ([…] Å); competitive replacement ITC with NADH
[4] = molecular target: T1, human mitochondrial malate dehydrogenase (hMDH2); test: crystal structure ([…] Å)
[5] = molecular target: T1, human mitochondrial malate dehydrogenase (hMDH2); test: crystal structure ([…] Å); enzyme activity increased by phosphate
[6] = molecular target: T1, human mitochondrial malate dehydrogenase (hMDH2); test: crystal structure ([…] Å; also with NAD, 4WLU, […] Å)

## NC(=O)C1=CN([C@@H]2O[C@H](COP(=O)(O)OP(=O)(O)OC[C@H]3O[C@@H](n4cnc5c(N)ncnc54)[C@H](O)[C@@H]3O)[C@@H](O)[C@H]2O)C=CC1 [NADH]
[1]
  Kd: 3.05 µM

## O=C(O)CC(=O)C(=O)O [oxaloacetate]
[2]
  crystal structure of the ternary complex with NADH (2.50 Å): Arg104 paired with only one oxygen atom of oxaloacetate

## NC(=O)c1ccc[n+]([C@@H]2O[C@H](COP(=O)([O-])OP(=O)(O)OC[C@H]3O[C@@H](n4cnc5c(N)ncnc54)[C@H](O)[C@@H]3O)[C@@H](O)[C@H]2O)c1 [NAD]
[3]
  Kd: 2310 µM

## O=C(O)CC(O)(CC(=O)O)C(=O)O [citrate]
[4]
  crystal structure (1.90 Å): The citrate occupied the substrate binding site in the refined structure.

## O=P(O)(O)O [phosphate]
[5]
  crystal structure (2.28 Å); enzyme activity increased by phosphate: two phosphate ions were located in the substrate binding site and a third in the position of the ribose ring

## O=C(O)C[C@H](O)C(=O)O [L-malate]
[6]
  crystal structure (2.20 Å; also with NAD, 4WLU, 2.14 Å): Both L-malate and citrate bound in the same site of hMDH2 and formed hydrogen bonds with the surrounding residues
